{
  "source": "patent US11103564B2",
  "about": "“Compositions for the inhibition of Giardia lamblia” (INSTITUT NATIONAL DE LA RECHERCHE AGRONOMIQUE, priority 2014, dated 2021)",
  "molecules": {"B1": {"name": "BSH-56: recombinant L. johnsonii La1 bile-salt hydrolase LJ0056 produced as BSH-47 (protein)", "chain": "MCTGLRFTDDQGNLYFGRNLDVGQDYGEGVIITPRNYPLPYKFLDNTTTKKAVIGMGIVVDGYPSYFDCYNEDGLGIAGLNFPHFAKFSDGPIDGKINLASYEIMLWVTQNFTHVSEVKEALKNVNLVNEAINTSFAVAPLHWIISDSDEAIIVEVSKQYGMKVFDDKVGVLTNSPDFNWHLTNLGNYTGLNPHDATAQSWNGQKVAPWGVGTGSLGLPGDSIPADRFVKAAYLNVNYPTAKGEKANVAKFFNILKSVAMIKGSVVNDQGKDEYTVYTACYSSGSKTYYCNFEDDFELKTYKLDDHTMNSTSLVTY", "modifications": "Lactobacillus johnsonii BSH-56"}, "B2": {"name": "BSH-47: recombinant L. johnsonii La1 bile-salt hydrolase LJ1147 produced in E. coli, His-Tag purified (protein)", "chain": "MCTSILYSPKDNYFGRNLDYEIAYGQKVVITPRNYQLNYRHLPTQDTHYAMIGVSVVANDYPLYCDAINEKGLGIAGLNFTGPGKYFSVDESKKNVTSFELIPYLLSNCETIEDVKKLLSETNITDESFSKDLPVTTLHWLMGDKSGKSIVIESTETGLHVYDNPVNTLTNNPVFPAQVETLANFASVSPAQPKNTLVPNADINLYSRGLGTHHLPGGTDSNSRFIKASFVLAHSPKGNDEVENVTNFFHVLHSVEQAKGTDEVEDNVFEFTMYSDCMNLDKGILYFTTYDNNQINAVDMNNEDLGTSDLITYELFKDQAIKFEN", "modifications": "His-tag; Lactobacillus johnsonii BSH-47", "notes": "recombinant L. johnsonii La1 bile-salt hydrolase LJ1147 produced in E. coli, His-Tag purified"}},
  "key": {"G. lamblia trophozoites [1]": {"tested_on": "G. lamblia trophozoites", "assay": "In vitro G. lamblia growth inhibition assay", "type": "cell-based, Giardia lamblia", "conditions": "for IC50: KM-FCS; for inhibitory activity on G. lamblia growth: KM-FCS culture medium, without BSH"}, "[2]": {"tested_on": "Giardia trophozoite cultures", "assay": "Screening of lactobacilli strain supernatants for G. lamblia growth inhibition", "type": "cell-based, Giardia lamblia", "conditions": "supernatant, 24 h at 37° C., with bovine bile 0.6 g/L", "experimental": "The inhibitory effect on G. lamblia growth of different lactobacilli strains was screened (cf. table 5). Bacterial supernatant was co-incubated for 24 h at 37° C. with Giardia trophozoite cultures (triplicates), with or without bovine bile (0.6 g/L). […] Table 5 indicates the corresponding internal and official references of the bacterial strains, and bibliographic references."}, "[3]": {"type": "biochemical"}, "G. lamblia trophozoites [4]": {"tested_on": "G. lamblia trophozoites", "assay": "Effect of recombinant LjLa1 BSH on Giardia trophozoites cultures", "type": "cell-based, Giardia lamblia"}, "[5]": {"assay": "BSH activity on taurodeoxycholic / glycodeoxycholic LB agar", "type": "biochemical", "conditions": "taurodeoxycholic (0.3%) and glycodeoxycholic (0.3%) LB agar, 48 h at 37° C."}, "G. lamblia WB clone C6": {"tested_on": "G. lamblia WB clone C6", "assay": "In vivo effect of BSH-47 against G. lamblia in neonatal mice", "conditions": "daily gavage day 10 to 15, vs PBS", "experimental": "FIG. 13: G. lamblia trophozoites count in the small intestine. Mice were challenged with the trophozoites of G. lamblia WB clone C6 (10^5 trophozoites per animal) at day 10 Animals were treated either with PBS or BSH-47 at 1 μg/ml (0.5 μg per mice), 10 μg/ml (5 μg per mice) or 100 μg/ml (50μg/mice) by daily intragastric gavage until day 15 (n=10 to 11/group). Values are mean±SEM; p<0.05.\nSolutions of recombinant BSH-47 solutions (1 μg/ml, 10 μg/ml and 100 μg/ml diluted in NaHCO3 16.4%) were thawed and daily administered by intragastric gavage to neonatal mice (dose were respectively […] per mice) from day 10 to day 15 (day of sacrifice). Control animals received PBS instead of BSH."}, "[6]": {"conditions": "absence of LjLa1sn, trophozoites growth inhibition, read-out: IC50 +/− SD, with culture medium only"}, "[7]": {"conditions": "presence of LjLa1sn, read-out: IC50 +/− SD, with bacterial spent culture medium"}, "[8]": {"conditions": "Giardia duodenalis, absence of LjLa1sn, trophozoites growth inhibition, read-out: IC50 +/− SD, with culture medium only"}, "[9]": {"conditions": "Giardia duodenalis, presence of LjLa1sn, read-out: IC50 +/− SD, with bacterial spent culture medium"}, "[10]": {"conditions": "0.0001 μg/ml to 10 μg/ml, presence of bovine bile (0.06 g/L)"}},
  "note": "Where two headings read alike, the source gives them in different places.",
  "data": [
    {"molecule": "C[C@H](CCC(=O)O)[C@H]1CC[C@H]2[C@@H]3[C@H](O)C[C@@H]4C[C@H](O)CC[C@]4(C)[C@H]3C[C@H](O)[C@]12C", "note": "[C, Cholate]", "values": [
      {"measurement": "IC50", "setting": "G. lamblia trophozoites [1]; [6]", "value": "> 400", "unit": "µM"},
      {"measurement": "IC50", "setting": "G. lamblia trophozoites [1]; [7]", "value": "> 400", "unit": "µM"}
    ]},
    {"molecule": "C[C@H](CCC(=O)O)[C@H]1CC[C@H]2[C@@H]3[C@H](O)C[C@@H]4C[C@H](O)CC[C@]4(C)[C@H]3CC[C@]12C", "note": "[CDC, Chenodesoxycholate]", "values": [
      {"measurement": "IC50", "setting": "G. lamblia trophozoites [1]; [8]", "value": 147, "unit": "µM"},
      {"measurement": "IC50", "setting": "G. lamblia trophozoites [1]; [9]", "value": 118, "unit": "µM"}
    ]},
    {"molecule": "CC(=O)O[C@H]1C[C@@]2(C)[C@@H](C[C@@H](O)[C@H]3[C@@]4(C)CC[C@@H](O)[C@@H](C)[C@@H]4CC[C@@]32C)/C1=C(\\CCC=C(C)C)C(=O)O", "note": "[FA, Fusidic acid]", "values": [
      {"measurement": "IC50", "setting": "G. lamblia trophozoites [1]; [8]", "value": 26, "unit": "µM"}
    ]},
    {"molecule": "C[C@H](CCC(=O)NCC(=O)O)[C@H]1CC[C@H]2[C@@H]3[C@H](O)C[C@@H]4C[C@H](O)CC[C@]4(C)[C@H]3C[C@H](O)[C@]12C", "note": "[GC, Glycocholate]", "values": [
      {"measurement": "IC50", "setting": "G. lamblia trophozoites [1]; [8]", "value": "> 400", "unit": "µM"},
      {"measurement": "IC50", "setting": "G. lamblia trophozoites [1]; [9]", "value": "> 400", "unit": "µM"}
    ]},
    {"molecule": "C[C@H](CCC(=O)NCC(=O)O)[C@H]1CC[C@H]2[C@@H]3[C@H](O)C[C@@H]4C[C@H](O)CC[C@]4(C)[C@H]3CC[C@]12C", "note": "[GCDC, Glycochenodesoxycholate]", "values": [
      {"measurement": "IC50", "setting": "G. lamblia trophozoites [1]; [8]", "value": "> 400", "unit": "µM"},
      {"measurement": "IC50", "setting": "G. lamblia trophozoites [1]; [9]", "value": 110, "unit": "µM"},
      {"measurement": "inhibitory activity on G. lamblia growth", "setting": "G. lamblia trophozoites [1]", "value": "no inhibitory activity"}
    ]},
    {"molecule": "C[C@H](CCC(=O)NCC(=O)O)[C@H]1CC[C@H]2[C@@H]3CC[C@@H]4C[C@H](O)CC[C@]4(C)[C@H]3C[C@H](O)[C@]12C", "note": "[GDC, Glycodesoxycholate]", "values": [
      {"measurement": "IC50", "setting": "G. lamblia trophozoites [1]; [8]", "value": "> 400", "unit": "µM"},
      {"measurement": "IC50", "setting": "G. lamblia trophozoites [1]; [9]", "value": 104, "unit": "µM"},
      {"measurement": "inhibitory activity on G. lamblia growth", "setting": "G. lamblia trophozoites [1]", "value": "no inhibitory activity"}
    ]},
    {"molecule": "C[C@H](CCC(=O)NCCS(=O)(=O)O)[C@H]1CC[C@H]2[C@@H]3[C@H](O)C[C@@H]4C[C@H](O)CC[C@]4(C)[C@H]3CC[C@]12C", "note": "[TCDC, Taurochenodesoxycholate]", "values": [
      {"measurement": "IC50", "setting": "G. lamblia trophozoites [1]; [8]", "value": "> 400", "unit": "µM"},
      {"measurement": "IC50", "setting": "G. lamblia trophozoites [1]; [9]", "value": 115, "unit": "µM"},
      {"measurement": "inhibitory activity on G. lamblia growth", "setting": "G. lamblia trophozoites [1]", "value": "no inhibitory activity"}
    ]},
    {"molecule": "C[C@H](CCC(=O)NCCS(=O)(=O)O)[C@H]1CC[C@H]2[C@@H]3CC[C@@H]4C[C@H](O)CC[C@]4(C)[C@H]3C[C@H](O)[C@]12C", "note": "[TDC, Taurodesoxycholate]", "values": [
      {"measurement": "inhibitory activity on G. lamblia growth", "setting": "G. lamblia trophozoites [1]", "value": "no inhibitory activity"},
      {"measurement": "IC50", "setting": "G. lamblia trophozoites [1]; [6]", "value": "> 400", "unit": "µM"},
      {"measurement": "IC50", "setting": "G. lamblia trophozoites [1]; [7]", "value": 79, "unit": "µM"}
    ]},
    {"molecule": "Desoxycholate [DC]", "values": [
      {"measurement": "IC50", "setting": "G. lamblia trophozoites [1]; [6]", "value": 132, "unit": "µM"},
      {"measurement": "IC50", "setting": "G. lamblia trophozoites [1]; [7]", "value": 117, "unit": "µM"}
    ]},
    {"molecule": "Lactobacillus acidophilus", "values": [
      {"measurement": "inhibitory effect on G. lamblia growth", "setting": "[2]", "value": "potent inhibitors"}
    ]},
    {"molecule": "Lactobacillus reuteri", "values": [
      {"measurement": "inhibitory effect on G. lamblia growth", "setting": "[2]", "value": "potent inhibitors"}
    ]},
    {"molecule": "B1", "values": [
      {"measurement": "Specific activity", "setting": "[3]; glycine release", "value": "0.536 μmole of glycine/5 min at 37°"},
      {"measurement": "Specific activity", "setting": "[3]; taurine release", "value": "2.604 μmole taurine/5 min at 37° C./"},
      {"measurement": "inhibitory effect on G. lamblia trophozoites", "setting": "G. lamblia trophozoites [4]; [10]", "value": "strong inhibitory effects"},
      {"measurement": "inhibitory effect on G. lamblia trophozoites", "setting": "G. lamblia trophozoites [4]; without bovine bile", "value": "no inhibitory effect"}
    ]},
    {"molecule": "B2", "values": [
      {"measurement": "Specific activity", "setting": "[3]; glycine release", "value": "0.066 μmole of glycine/5 min at 37°"},
      {"measurement": "Specific activity", "setting": "[3]; taurine release", "value": "0.717 μmole taurine/5 min at 37° C./"},
      {"measurement": "substrate specificity on agar", "setting": "[5]", "value": "taurospecific"},
      {"measurement": "inhibitory effect on G. lamblia trophozoites", "setting": "G. lamblia trophozoites [4]; [10]", "value": "strong inhibitory effects"},
      {"measurement": "effect on Giardia trophozoites cultures", "setting": "G. lamblia trophozoites [4]; 0.96 U, with bovine bile (0.06 g/L)", "value": "exhibits an inhibiting effect"},
      {"measurement": "inhibitory effect on G. lamblia trophozoites", "setting": "G. lamblia trophozoites [4]; without bovine bile", "value": "no inhibitory effect"},
      {"measurement": "parasite load in the small intestine", "setting": "G. lamblia WB clone C6; 100 μg/ml group", "value": "significant reduction"},
      {"measurement": "trophozoites load in the small intestine", "setting": "G. lamblia WB clone C6; all groups: 1, 10 and 100 μg/ml", "value": "reduction in trophozoites load"}
    ]}
  ]
}
